# From US12600728B2, “Interleukin-17 inhibitors” (priority 2020, dated 2026)
# Tests used:
# [1] = molecular target: biotinylated human IL-17A / AF647-labeled human IL-17RA (Homo sapiens, UniProt Q16552); test: Human IL-17A×IL-17RA TR-FRET assay; type: binding; details: TR-FRET, biotinylated human IL-17A 5 nM, AF647-labeled human IL-17RA 30 nM; read-out: IL17AA FRET/ IL17Rawt IC50
# In short: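 Compounds tested in duplicate at each concentration; neutral controls contain all components with DMSO in place of compound.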
# [2] = molecular target: recombinant human IL-17AA (Homo sapiens, UniProt Q16552); test: IL-6 release from NHDF cells, IL-17AA plus TNF-α stimulation; type: cell-based; details: NHDF cells, IL-17AA 30 pM plus TNF-α 6 pM, 24 hours, IL-6 by ELISA; read-out: IL17AA + TNF IC50 IL-6
# Chain of recombinant human IL-17AA (Q16552 24-155): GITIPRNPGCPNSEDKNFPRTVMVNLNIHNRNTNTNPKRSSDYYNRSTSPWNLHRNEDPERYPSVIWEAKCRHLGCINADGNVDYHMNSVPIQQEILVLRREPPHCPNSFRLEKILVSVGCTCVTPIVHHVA
# In short: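 ELISA measured IL-6 in supernatants after 24 h at 37° C of NHDF cells with a compound/cytokine cocktail, pre-mixed 30 min at room temperature. Duplicates; 0.1% DMSO or 20% plasma final. IC50 from IL-6 remaining after subtracting the TNF-α-alone signal.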
# Chain of biotinylated human IL-17A / AF647-labeled human IL-17RA (Q16552 24-155): as above
Compound,IC50 [1] [nM],IC50 [2] [nM]
"Cc1cc[n+]([O-])c(C)c1-c1ccc(NC(=O)[C@@H](NC(=O)c2ccnn2C(C)C)C2CCCCC2)cc1F [Example 96, 3-(4-((S)-2-cyclohexyl-2-(1-isopropyl-1H-pyrazole-5-carboxamido)acetamido)-2-fluorophenyl)-2,4-dimethylpyridine 1-oxide]",70,7
"Cc1c[n+]([O-])cc(C)c1-c1ccc(NC(=O)[C@@H](NC(=O)c2ccnn2C)C2CCCCCC2)cc1 [Example 99, (S)-4-(4-(2-cycloheptyl-2-(1-methyl-1H-pyrazole-5-carboxamido)acetamido)phenyl)-3,5-dimethylpyridine 1-oxide]",208,81
"Cc1c[n+]([O-])cc(C)c1-c1ccc(NC(=O)[C@@H](NC(=O)c2ccnn2C2CC2)C2CCCCCC2)cc1 [Example 100, (S)-4-(4-(2-cycloheptyl-2-(1-cyclopropyl-1H-pyrazole-5-carboxamido)acetamido)phenyl)-3,5-dimethylpyridine 1-oxide]",243,46
"Cc1c[n+]([O-])cc(C)c1-c1ccc(NC(=O)[C@@H](NC(=O)c2ccnn2C(C)C)C2CCCCCC2)cc1 [Example 101, (S)-4-(4-(2-cycloheptyl-2-(1-isopropyl-1H-pyrazole-5-carboxamido)acetamido)phenyl)-3,5-dimethylpyridine 1-oxide]",85,22
"Cc1c[n+]([O-])cc(C)c1-c1ccc(NC(=O)[C@@H](NC(=O)c2ccnn2C)[C@H]2CCc3ccccc3C2)cc1 [Example 103, 3,5-dimethyl-4-(4-((S)-2-(1-methyl-1H-pyrazole-5-carboxamido)-2-((S)-1,2,3,4-tetrahydronaphthalen-2-yl)acetamido)phenyl)pyridine 1-oxide]",72,45
"Cc1nocc1C(=O)N[C@H](C(=O)Nc1ccc(-c2c(Cl)cc[n+]([O-])c2C)c(F)c1)C1CCC(F)(F)CC1 [Example 106, 4-chloro-3-(4-((S)-2-(4,4-difluorocyclohexyl)-2-(3-methylisoxazole-4-carboxamido)acetamido)-2-fluorophenyl)-2-methylpyridine 1-oxide]",50,18

# Further molecules by falling IC50 [1], results first:
IC50 [1] [nM],IC50 [2] [nM],Compound
1600,139,"Cc1cc[n+]([O-])c(C(F)F)c1-c1ccc(NC(=O)[C@@H](NC(=O)c2ccnn2C)C2CCCCC2)cc1 [Example 104, (S)-3-(4-(2-cyclohexyl-2-(1-methyl-1H-pyrazole-5-carboxamido)acetamido)phenyl)-2-(difluoromethyl)-4-methylpyridine 1-oxide]"
125,19,"Cc1cc[n+]([O-])c(C)c1-c1ccc(NC(=O)[C@@H](NC(=O)c2ccnn2C)C2CCCCC2)cc1F [Example 95, 3-(4-((S)-2-cyclohexyl-2-(1-methyl-1H-pyrazole-5-carboxamido)acetamido)-2-fluorophenyl)-2,4-dimethylpyridine 1-oxide]"
123,17,"Cc1c[n+]([O-])cc(C)c1-c1ccc(NC(=O)[C@@H](NC(=O)c2ccnn2C2CCC2)C2CCCCCC2)cc1 [Example 102, (S)-4-(4-(2-(1-cyclobutyl-1H-pyrazole-5-carboxamido)-2-cycloheptylacetamido)phenyl)-3,5-dimethylpyridine 1-oxide]"
19,15,"Cc1c(-c2ccc(NC(=O)[C@@H](NC(=O)c3ccnn3C)C3CCC(F)(F)CC3)cc2F)c(Cl)cc[n+]1[O-] [Example 107, 4-chloro-3-(4-((S)-2-(4,4-difluorocyclohexyl)-2-(1-methyl-1H-pyrazole-5-carboxamido)acetamido)-2-fluorophenyl)-2-methylpyridine 1-oxide]"
